Assay [1] concerns the target T1, Melanocortin receptor 4 (Homo sapiens, UniProt P32245, Y268F). In words: Displacement of [125I]NDP-alpha-MSH from mutant MC4R Y268F expressed in HEK293 cells. Type of assay: cell-based.
Assay [2] concerns the target T2, Melanocortin receptor 4 (Homo sapiens, UniProt P32245, F184A). In words: Displacement of [125I]NDP-alpha-MSH from mutant MC4R F184A expressed in HEK293 cells. Type of assay: cell-based. (Displacement assays read how much labelled ligand stays bound in the presence of the test substance.)
Assay [3] has as its target T3, Melanocortin receptor 4 (Homo sapiens, UniProt P32245, I129A). In words: biochemical.
The target of assay [4] is T2, Melanocortin receptor 4. In words: Antagonist activity at the mutant MC4R F184A expressed in HEK293 cells by cAMP accumulation. The format is functional, cell-based. Background: Changes in cAMP serve as a functional read-out for many G protein-coupled receptors.
For assay [5], the target named is T4, Melanocortin receptor 4 (Homo sapiens, UniProt P32245, I291A). In words: Antagonist activity at the mutant MC4R I291A expressed in HEK293 cells by cAMP accumulation. Type of assay: functional, cell-based.
In assay [6] the target is T5, Melanocortin receptor 4 (Homo sapiens, UniProt P32245, Y287A). In words: Antagonist activity at the mutant MC4R Y287A expressed in HEK293 cells by cAMP accumulation. Type of assay: functional, cell-based.
In assay [7] the target is T6, Melanocortin receptor 4 (Homo sapiens, UniProt P32245, Y287F). In words: Displacement of [125I]NDP-alpha-MSH from mutant MC4R Y287F expressed in HEK293 cells. Type of assay: cell-based.
Assay [8] has as its target T7, Melanocortin receptor 4 (Homo sapiens, UniProt P32245, Y268A). In words: Antagonist activity at the mutant MC4R Y268A expressed in HEK293 cells by cAMP accumulation. Type of assay: functional, cell-based.
Assay [9] deals with T5, Melanocortin receptor 4. In words: Displacement of [125I]NDP-alpha-MSH from mutant MC4R Y287A expressed in HEK293 cells. The format is cell-based.
The target in assay [10] is T1, Melanocortin receptor 4. In words: Antagonist activity at the mutant MC4R Y268F expressed in HEK293 cells by cAMP accumulation. The format is functional, cell-based.
Assay [11] has as its target T8, Melanocortin receptor 4 (Homo sapiens, UniProt P32245, I125A). In words: Displacement of [125I]NDP-alpha-MSH from mutant MC4R I125A expressed in HEK293 cells. The format is cell-based.
Assay [12] addresses T9, Melanocortin receptor 4 (Homo sapiens, UniProt P32245). In words: Antagonist activity at the human wild type MC4R expressed in HEK293 cells by cAMP accumulation. The format is functional, cell-based.
In assay [13] the target is T8, Melanocortin receptor 4. In words: Antagonist activity at the mutant MC4R I125A expressed in HEK293 cells by cAMP accumulation. Type of assay: functional, cell-based.
In assay [14] the target is T7, Melanocortin receptor 4. In words: Displacement of [125I]NDP-alpha-MSH from mutant MC4R Y268A expressed in HEK293 cells. Type of assay: cell-based.
Assay [15] has as its target T6, Melanocortin receptor 4. In words: Antagonist activity at the mutant MC4R Y287F expressed in HEK293 cells by cAMP accumulation. Type of assay: functional, cell-based.
In assay [16] the target is T9, Melanocortin receptor 4. In words: biochemical.
Assay [17] deals with T7, Melanocortin receptor 4. In words: Agonist activity at the mutant MC4R Y268A expressed in HEK293 cells by cAMP accumulation. The format is functional, cell-based.
The target of assay [18] is T4, Melanocortin receptor 4. In words: Agonist activity at the mutant MC4R I291A expressed in HEK293 cells by cAMP accumulation. Type of assay: functional, cell-based.
The target of assay [19] is T9, Melanocortin receptor 4. In words: Agonist activity at the human wild type MC4R expressed in HEK293 cells by cAMP accumulation. Type of assay: functional, cell-based.
The target of assay [20] is T1, Melanocortin receptor 4. In words: Agonist activity at the mutant MC4R Y268F expressed in HEK293 cells by cAMP accumulation. The format is functional, cell-based.
In assay [21] the target is T5, Melanocortin receptor 4. In words: Agonist activity at the mutant MC4R Y287A expressed in HEK293 cells by cAMP accumulation. Type of assay: functional, cell-based.
Assay [22] addresses T3, Melanocortin receptor 4.
Assay [23] addresses T8, Melanocortin receptor 4. In words: Agonist activity at the mutant MC4R I125A expressed in HEK293 cells by cAMP accumulation. Type of assay: functional, cell-based.
Assay [24] addresses T2, Melanocortin receptor 4. In words: Agonist activity at the mutant MC4R F184A expressed in HEK293 cells by cAMP accumulation. The format is functional, cell-based.
For assay [25], the target named is T6, Melanocortin receptor 4. In words: Agonist activity at the mutant MC4R Y287F expressed in HEK293 cells by cAMP accumulation. Type of assay: functional, cell-based.

SMILES strings stand for the structures.

The record followed here is ChEMBL document CHEMBL1148620 (J Med Chem, 2006).

T5 sequence (P32245 whole entry Y287A): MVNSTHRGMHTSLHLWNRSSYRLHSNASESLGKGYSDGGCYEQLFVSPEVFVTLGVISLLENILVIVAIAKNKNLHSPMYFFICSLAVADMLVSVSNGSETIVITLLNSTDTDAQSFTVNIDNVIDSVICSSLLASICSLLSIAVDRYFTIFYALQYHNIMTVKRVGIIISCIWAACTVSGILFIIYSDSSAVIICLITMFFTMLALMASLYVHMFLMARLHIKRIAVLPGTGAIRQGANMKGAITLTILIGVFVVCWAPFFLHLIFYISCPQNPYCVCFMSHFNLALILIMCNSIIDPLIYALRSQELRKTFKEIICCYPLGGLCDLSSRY
T3 sequence (P32245 whole entry I129A): as the sequence (P32245 whole entry Y287A) above, with I129A, A287Y counted along it
T4 sequence (P32245 whole entry I291A): as the sequence (P32245 whole entry Y287A) above, with A287Y, I291A counted along it
T8 sequence (P32245 whole entry I125A): as the sequence (P32245 whole entry Y287A) above, with I125A, A287Y counted along it
T7 sequence (P32245 whole entry Y268A): as the sequence (P32245 whole entry Y287A) above, with Y268A, A287Y counted along it
T1 sequence (P32245 whole entry Y268F): as the sequence (P32245 whole entry Y287A) above, with Y268F, A287Y counted along it
T6 sequence (P32245 whole entry Y287F): as the sequence (P32245 whole entry Y287A) above, with A287F counted along it
T2 sequence (P32245 whole entry F184A): as the sequence (P32245 whole entry Y287A) above, with F184A, A287Y counted along it
T9 sequence (P32245 whole entry): as the sequence (P32245 whole entry Y287A) above, with A287Y counted along it

Regarding `CC[C@H](C)[C@@H]1NC(=O)[C@H]([C@@H](C)O)NC(=O)[C@H](Cc2c[nH]c3ccccc23)NC(=O)[C@H](CCCN=C(N)N)NC(=O)[C@@H](Cc2cccc3ccccc23)NC(=O)[C@H](Cc2c[nH]cn2)NC(=O)[C@H]([C@@H](C)O)NC(=O)[C@H](Cc2ccc(O)cc2)NC(=O)[C@H]([C@@H](C)O)NC(=O)[C@@H]2CCCN2C1=O`, the inhibitory constant (Ki) on Melanocortin receptor 4 [1] was found to be 0.92 nM; at Melanocortin receptor 4 [2], 0.71 nM; on Melanocortin receptor 4 [3] it was 14 nM; at Melanocortin receptor 4 [7], 1.7 nM; on Melanocortin receptor 4 [9], 18 nM; at Melanocortin receptor 4 [11] it was 1.3 nM. In addition, the Ki worked out at 40 nM on Melanocortin receptor 4 [14] and 1.5 nM at Melanocortin receptor 4 [16]. Further, the IC50 is 11 nM against Melanocortin receptor 4 [4]; 22 nM at Melanocortin receptor 4 [5]; 121 nM on Melanocortin receptor 4 [6]; 248 nM at Melanocortin receptor 4 [8]; 17 nM on Melanocortin receptor 4 [10]; 16 nM at Melanocortin receptor 4 [12]. For the same compound, the IC50 at Melanocortin receptor 4 [13] was 5.8 nM; at Melanocortin receptor 4 [15], 8.8 nM.
In the case of `CN(C)[C@H]1C[C@@H](C(=O)N2CCC(Cn3cncn3)(C3CCCCC3)CC2)[C@H](c2ccc(Cl)cc2)C1`, the Ki on Melanocortin receptor 4 [1] is 275 nM; on Melanocortin receptor 4 [2] it was 114 nM; at Melanocortin receptor 4 [3], 3100 nM; on Melanocortin receptor 4 [7], 890 nM; on Melanocortin receptor 4 [9], 2120 nM; on Melanocortin receptor 4 [11], 1250 nM. In addition, the values for the inhibition constant Ki on Melanocortin receptor 4 [14] and on Melanocortin receptor 4 [16] were 1020 nM and 305 nM, respectively. Besides, the concentration giving a half-maximal response (EC50) at Melanocortin receptor 4 [17] was 33 nM; on Melanocortin receptor 4 [18], over 1000 nM; on Melanocortin receptor 4 [19] it was 9.5 nM; on Melanocortin receptor 4 [20] it was 6.6 nM; at Melanocortin receptor 4 [21], 418 nM; on Melanocortin receptor 4 [22], 1520 nM. In addition, the half-maximal effective concentration (EC50) on Melanocortin receptor 4 [23] was 53 nM; on Melanocortin receptor 4 [24], 1.02 nM; at Melanocortin receptor 4 [25], 10 nM.
For the compound `CC[C@H](C)[C@@H]1NC(=O)[C@H]([C@@H](C)O)NC(=O)[C@H](Cc2c[nH]c3ccccc23)NC(=O)[C@H](CCCN=C(N)N)NC(=O)[C@@H](Cc2ccccc2)NC(=O)[C@H](Cc2cnc[nH]2)NC(=O)[C@H]([C@@H](C)O)NC(=O)[C@H](Cc2ccc(O)cc2)NC(=O)[C@H](CO)NC(=O)[C@@H]2CCCN2C1=O`, the inhibition constant (Ki) was 83 nM at Melanocortin receptor 4 [1]; 29 nM on Melanocortin receptor 4 [2]; 710 nM on Melanocortin receptor 4 [3]; 90 nM on Melanocortin receptor 4 [7]; 1490 nM on Melanocortin receptor 4 [9]; 111 nM on Melanocortin receptor 4 [11]. Moreover, the results for the Ki on Melanocortin receptor 4 [14] and on Melanocortin receptor 4 [16] were 1370 nM and 59 nM, respectively. For the same compound, the EC50 amounted to 270 nM on Melanocortin receptor 4 [17]; 250 nM at Melanocortin receptor 4 [18]; 11 nM at Melanocortin receptor 4 [19]; 12 nM at Melanocortin receptor 4 [20]; 328 nM on Melanocortin receptor 4 [21]; 250 nM at Melanocortin receptor 4 [22]. The concentration for a half-maximal effect (EC50) at Melanocortin receptor 4 [23] is 202 nM; at Melanocortin receptor 4 [24], 3.2 nM; at Melanocortin receptor 4 [25], 9.5 nM.

A word on the Ki: it is the equilibrium dissociation constant of an inhibitor or competing ligand from its target. A higher Ki goes with lower affinity. Usually IC50 stands for the point on the concentration scale where inhibition reaches its midpoint. For orientation: EC50 means the concentration giving half of the maximal effect. Lower therefore signals higher potency in that assay.
